Assay results from publication PMC11597478, “Kinin B1- and B2-Receptor Subtypes Contract Isolated Bovine Ciliary Muscle: Their Role in Ocular Lens Function and Intraocular Pressure Reduction” (Pharmaceuticals, 2024).
Like-named read-outs stand apart in the source and are kept apart here. Peptide text beside a SMILES is read from it.

Key:
[1] = system: human trabecular meshwork (hTM) cells; details: [Ca2+]i mobilization, second value of cell; single B2-receptor subtype; ref [2],[8]; read-out: Functional potency, hTM Cells, HP Site; cited from earlier work
Description: (§1) Table 2 Ability of BK and Des-Arg^9-BK to Contract Various Tissues of Different Species or to Mobilize Intracellular Ca^2+ in human Ocular Cells. | column: hCM/hTM Cells

[2] = system: human ciliary muscle (hCM) cells; details: [Ca2+]i mobilization, first value of cell; single B2-receptor subtype; ref [2],[8]; read-out: Functional potency, hCM Cells, HP Site; cited from earlier work
Description: as §1

[3] = system: rat ileum; details: B1-receptor in rat ileum, contraction; ref [25]; read-out: Functional potency, RI, HP Site; cited from earlier work
Description: Table 2 Ability of BK and Des-Arg^9-BK to Contract Various Tissues of Different Species or to Mobilize Intracellular Ca^2+ in human Ocular Cells. | column: RI || In the current studies, both BK and Des-Arg^9-BK contracted the BCM in a biphasic fashion, indicating the involvement of both B1 and B2 receptors in the smooth muscle contraction process. Other agonist peptides related to BK also elicited similar profiles of contractility, thereby substantiating the effects of BK and Des-Arg^9-BK in this specific tissue. Furthermore, the role of both kinin receptor subtypes being responsible for contracting BCM in vitro was confirmed by sequentially recording the functional responses of the tissue in the presence of B1- and B2-receptor antagonists in numerous ...

[4] = system: guinea pig taenia caeci; details: tissue contraction, ref [17],[18], cited from earlier work
Description: Table 2 Ability of BK and Des-Arg^9-BK to Contract Various Tissues of Different Species or to Mobilize Intracellular Ca^2+ in human Ocular Cells. | column: GPTC

[5] = system: guinea pig trachea; details: tissue contraction, ref [17],[18], cited from earlier work
Description: Table 2 Ability of BK and Des-Arg^9-BK to Contract Various Tissues of Different Species or to Mobilize Intracellular Ca^2+ in human Ocular Cells. | column: GPT

[6] = system: rat uterus strips; details: B2-receptor-mediated contraction; ref [1],[2],[3],[18],[20],[23]; read-out: Functional potency, RUT, HP Site; cited from earlier work
Description: Table 2 Ability of BK and Des-Arg^9-BK to Contract Various Tissues of Different Species or to Mobilize Intracellular Ca^2+ in human Ocular Cells. | column: RUT

[7] = system: recombinant B1 receptors expressed in host cells; details: ref [1]; read-out: binding affinity Ki, recombinant B1 receptor (human); cited from earlier work
[8] = system: recombinant B1 receptors expressed in host cells; details: ref [1]; read-out: binding affinity Ki, recombinant B1 receptor (mouse); cited from earlier work
[9] = system: recombinant B1 receptors expressed in host cells; details: ref [1]; read-out: binding affinity Ki, recombinant B1 receptor (rabbit); cited from earlier work
[10] = system: rat whole bladder; details: B2-receptor-mediated contraction; ref [1],[2],[3],[18],[20],[23]; read-out: Functional potency, RWB, HP Site; cited from earlier work
Description: Table 2 Ability of BK and Des-Arg^9-BK to Contract Various Tissues of Different Species or to Mobilize Intracellular Ca^2+ in human Ocular Cells. | column: RWB

[11] = system: human umbilical vein; details: B2-receptor-mediated contraction; ref [1],[2],[3],[18],[20],[23]; read-out: Functional potency, HUV, HP Site; cited from earlier work
Description: Table 2 Ability of BK and Des-Arg^9-BK to Contract Various Tissues of Different Species or to Mobilize Intracellular Ca^2+ in human Ocular Cells. | column: HUV

[12] = system: mouse bladder strips; details: first value of cell, undefined kinin receptor, ref [10], read-out: Functional potency, M/H BSTP, HP Site (mouse); cited from earlier work
Description: (§2) Table 2 Ability of BK and Des-Arg^9-BK to Contract Various Tissues of Different Species or to Mobilize Intracellular Ca^2+ in human Ocular Cells. | column: M/H BSTP

[13] = system: human bladder strips; details: second value of cell, undefined kinin receptor, ref [10], read-out: Functional potency, M/H BSTP, HP Site (human); cited from earlier work
Description: as §2

[14] = system: bovine ciliary muscle (BCM) strips; test: tissue or blood; type: cell-based
Procedure: The methods utilized in the current studies were adapted from Lograno and Romano [13] and Ohia et al., with some minor modifications. Fresh bovine eyeballs were obtained from a local abattoir (Fisher Ham and Meat Company, Houston, TX, USA) and transported to the laboratory in ice. Whole eyeballs were placed in warm oxygenated Krebs buffer solution for 30 min to ensure equilibration before dissection of the ciliary muscle. Briefly, the anterior segment was dissected out of whole eyeballs after an incision was made at the limbus. The anterior segment containing the cornea, anterior uvea, and lens was then inverted and the lens dislodged with a probe along with the attached vitreous humor. After removal of the vitreous humor and lens, the whole ciliary muscle (comprising both longitudinal and circular portions) was quickly isolated and dissected from the scleral spur and choroid. Muscle strips of 4–5 mm in length were cut and mounted in 25 mL organ baths containing oxygenated Krebs solution at 37 °C using a silk thread linked to an isometric strain gauge under a constant load of 1g tension. The tissues were then allowed to equilibrate for 30 min. Two ciliary muscle strips were prepared from each eyeball and four to eight strips were used for each series of experiments. The composition of the Krebs solution used (mM) was NaCl, 118; KCl, 4.8; CaCl2, 2.5; KH2PO4, 1.2; NaHCO3, 25; MgSO4, 2.0; dextrose, 10 and flurbiprofen, 0.003 (pH 7.4), all purchased from Sigma-Aldrich, St. Louis, MO (USA). […] A robust response was characterized as a single contraction that consistently yielded a tension in the muscle induced by carbachol of 0.15–0.3 gm. […] Tissue strips were then thoroughly rinsed with fresh buffer solution via a series of buffer additions and drainage activities to remove any residual muscarinic agonist, and the preload was readjusted prior to starting the actual study with kininergic ligands. Concentration–response studies employed 7–11 compound concentrations (0.1 nM to 10 µM) and data from multiple experiments were collected.
The contractile responses obtained were expressed as gram tension developed and as percentages of the maximum response of each of the compounds. GraphPad Prism 4.0 Software (San Diego, CA, USA) was then used to construct the concentration–response curves for the kinins and to derive the half-maximal stimulation potencies (EC50) of each phase of the bi-phasic curves and the values tabulated as previously described.

## N=C(N)NCCC[C@H](NC(=O)[C@H](Cc1ccccc1)NC(=O)[C@@H]1CCCN1C(=O)[C@H](CO)NC(=O)[C@H](Cc1ccccc1)NC(=O)CNC(=O)[C@@H]1CCCN1C(=O)[C@@H]1CCCN1C(=O)[C@@H](N)CCCNC(=N)N)C(=O)O [BK, Bradykinin] (H-RPPGFSPFR-OH; N-terminus and C-terminus assumed)
[1]
  EC50: 1 nM
[2]
  EC50: 2.4 nM
[3]
  EC50: 4890 nM
[4]; high potency site, read-out: Functional potency, GPTC, HP Site
  EC50: 3 nM
[4]; low potency site, read-out: Functional potency, GPTC, LP Site
  EC50: 1000 nM
[5]; high potency site, read-out: Functional potency, GPT, HP Site
  EC50: 20 nM
[5]; low potency site, read-out: Functional potency, GPT, LP Site
  EC50: 4000 nM
[6]
  EC50: 3 nM
[7]
  Ki: 10000 nM
[8]
  Ki: 200 nM
[9]
  Ki: 5000 nM
[10]
  EC50: 90 nM
[11]
  EC50: 9 nM
[12]
  EC50: 1200 nM
[13]
  EC50: 5100 nM
[14]
  EC50: 0.9 ± 0.3 nM
[14]; biphasic C-R curve, BCM strips
  share of the maximal contraction accounted for by the first high affinity/potency phase: 40–60%
[14]; freshly isolated BCM strips, Krebs 37 °C, 1 g load, 7–11 concentrations (0.1 nM–10 µM), mean ± SEM, 3–8 experiments
  Max. Tension Generated During Contraction: 0.07 ± 0.01 gm tension
